Data set [1] deals with plasmin (Homo sapiens, UniProt P00747). Nature of the data set: In vitro plasmin stability. It is filed as in vitro ADME. Particulars: 100 μM ligand, PBS with plasmin (10 μg/mL), 37° C., 0 to 360 minutes, mean n=3. The protocol:
The in vitro plasmin stability of peptides with SEQ ID NOs: 12, 68, 99 and 163 were determined by incubating 100 μM of ligand in phosphate buffered saline (PBS) supplemented with plasmin (10 μg/mL) at 37° C. for 0 to 360 minutes. At selected time points during the incubation, the ligands were extracted from 80 μL of assay matrix by treatment with 80 μL of 50% acetonitrile (ACN). The samples were filtered and analysed by UPLC to determine the amount of ligand remaining. LC-MS analysis was performed to confirm ligand integrity and identify cleavage sites.

Data set [2] deals with T1, PSD-95-PDZ2 (Homo sapiens, UniProt P78352).
T1 construct: 7xHis (N); made in house; host or cells: Escherichia coli B21 pLys (for the mutants, 'as previously described')
Put plainly: Fluorescence polarization (FP) competition assay against cyclic nNOS TAMRA probe. Type of data set: binding. To be noted: for pKi: FP competition, cyclic nNOS TAMRA probe, mean of triplicates, N.B. = not binding, read-out: Ki. (In fluorescence polarisation assays a small probe gives low polarisation when free and higher when bound to something large.)

In data set [3] the target is T2, PSD-95-PDZ2 V229A (Homo sapiens, UniProt P78352, V229A).
T2 construct: measured against recombinantly expressed PSD-95-PDZ2 Ala mutants in FP saturation experiments; 7xHis (N); made in house; host or cells: Escherichia coli B21 pLys
Nature of the data set: FP saturation assay against PSD-95-PDZ2 Ala mutant V229A. To be noted: V229A mutation; TAMRA probes. It is filed as binding. An excerpt:
(§1) Protein expression. The pRSET plasmids encoding the (7× His)-PSD-95-PDZ2 wild type and (7× His)-PSD-95-PDZ2-V178C sequences were obtained as described previously.^38 The DNA constructs encoding the PSD-95-PDZ2 mutants (K165A, K168A, F172A, F1721, S173A, N180A, T192A, K193A, H225A, E226A, V229A K233A) were produced using Phusion® site-directed mutagenesis kit on the pRSET plasmid of the wild type PSD-95-PDZ2 and with the primers listed in Table 1. The PSD-95-PDZ2 mutants were transformed and expressed as previously described,^38 in Escherichia coli B21 pLys cells at 37° C. and 0.5 mM isopropyl-D-thiogalactopyranoside (IPTG). […] Protein concentration was measured by NanoDrop 1000 and mass determination of proteins was analyzed using an Agilent 6410 triple quadrupole LC-MS with a Poroshell column, 300SB-C18 2.1×75 mm in a linear gradient of 5% to 60% B, using a binary solvent system [A: H2O/MeCN/TFA, 94.9/5/0.1 and B: H2O/MeCN/TFA, 5/94.9/0.1] with a flow of 0.75 mL min^−1. […] The proteins were analyzed using the following gradient: from 5% to 60% B for 4 min. and from 60 to 100% B from 4 to 4.5 min.
(§2) Fluorescence polarization (FP). […] Fluorescence polarization was measured using a Safire 2 plate reader. […] Then, the polarization was fitted into a one-site binding model using Prism software 8.0 (GraphPad), from which the Kd can be measured. […]

Data set [4] addresses T3, PSD-95-PDZ2 K165A (Homo sapiens, UniProt P78352, K165A).
T3 construct: measured against recombinantly expressed PSD-95-PDZ2 Ala mutants in FP saturation experiments; 7xHis (N); made in house; host or cells: Escherichia coli B21 pLys
Nature of the data set: FP saturation assay against PSD-95-PDZ2 Ala mutant K165A. It is filed as binding. Particulars: K165 mutation; TAMRA probes.
Source text: as §1, §2

Data set [5] deals with T4, PSD-95-PDZ2 H225A (Homo sapiens, UniProt P78352, H225A).
T4 construct: measured against recombinantly expressed PSD-95-PDZ2 Ala mutants in FP saturation experiments; 7xHis (N); made in house; host or cells: Escherichia coli B21 pLys
Nature of the data set: FP saturation assay against PSD-95-PDZ2 Ala mutant H225A. It is filed as binding. Particulars: H225A mutation; TAMRA probes.
Source text: as §1, §2

Data set [6] addresses T5, PSD-95-PDZ2 (Homo sapiens, UniProt P78352, V178C).
T5 construct: screened with the TAMRA labelled PSD-95-PDZ2-V178C domain; 7xHis (N); made in house
Put plainly: SPOT peptide array screening with TAMRA labelled PSD-95-PDZ2. Type of data set: binding. Particulars: SPOT array, TAMRA labelled PSD-95-PDZ2-V178C, normalized to WT. The procedure, abridged: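 First, arrays were blocked 1 h and scanned to record background. Next, 50 nM labelled PDZ2-V178C in PBS pH 7.2 with 0.5% BSA bound for 1 h protected from light. Finally, after washes, 532 nm fluorescence was measured and background-corrected.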

The target in data set [7] is T1, PSD-95-PDZ2. Put plainly: Isothermal titration calorimetry (ITC). It is filed as binding. To be noted: ITC, 25° C.
Protocol: Isothermal titration calorimetry (ITC). The ITC assays were performed in NaPi 50 nM, 50 nM NaCl, pH 7.2 buffer filtered with a Corning® bottle-top vacuum filter system of a pore size of 0.22 μM, that was used to dissolve the peptides. Proteins were dialyzed against this buffer using Amicon® Ultra-15 centrifugal filter units, with a MWCO 3000 Da.
This assay was performed on an ITC200. The instrument differential power (DP) was set to 10 and the syringe rotating speed to 600 RPM. The assay setup consisted of introducing the protein inside the cell and the peptide (titrant) on the syringe. Calorimetry was performed at 25° C. Each analysis was performed in triplicates. Furthermore, several runs of peptide into buffer were performed in order to remove injection residual heat. Runs were analyzed with Origin 7.0 software (OriginLab).
Data set [8] concerns HeLa cells stably expressing HaloGFP.
Source text: To assess the cellular permeability and delivery to the cytosol of the compounds as defined herein, the cellular chloroalkane penetration assay (CAPA) may be used (Peraro et al. 2018). This assay takes advantage of a modified haloalkane dehalogenase designed to covalently bind chloroalkane (CA) molecules. A HeLa cell line expressing a fusion protein comprising a HaloTag, a green fluorescent protein (GFP) and a mitochondria-targeting peptide is used to report cytosolic delivery. […] Cells expressing the HaloTag enzyme are incubated with CA-tagged peptides. When these CA-peptides penetrate the cell membrane and reach the cytosol, they will bind to and react with the HaloTag (pulse step). Following a washing step, the cells are incubated with a CA-tagged dye that quantitatively penetrates the cell membrane and reacts with remaining unreacted HaloTag sites (chase step). Flow cytometry is used to measure the fluorescence intensity of the cells and the measured fluorescence is inversely proportional to the amount of CA-peptides that reach the penetrated the cells and can thus be used to assess cytosolic delivery. The obtained data is commonly expressed as CP50 values, the concentration at which 50% cell penetration is observed. […]
The mark [9] stands for this setting: plasmin (10 μg/mL) in phosphate buffered saline.

pKi: −log10 of the molar value. Where a SMILES comes first, the peptide text is derived from it. [ ]: non-standard residue; d: D form. The star is where a group is joined. 5TAMRA = CN(C)c1ccc2c(c1)Oc1cc(N(C)C)ccc1C21OC(=O)c2cc(C(=O)*)ccc21

Chain of plasmin (P00747 581-810 limits assumed, species assumed): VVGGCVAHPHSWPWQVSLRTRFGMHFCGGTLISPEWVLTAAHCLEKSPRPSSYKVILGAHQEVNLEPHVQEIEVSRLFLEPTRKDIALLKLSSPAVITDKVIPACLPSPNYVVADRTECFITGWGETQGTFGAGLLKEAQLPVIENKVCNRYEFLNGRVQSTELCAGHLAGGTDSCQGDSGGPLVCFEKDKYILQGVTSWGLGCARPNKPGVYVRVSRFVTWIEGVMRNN
Chain of plasmin (P00747 97-580 partner limits assumed, species assumed): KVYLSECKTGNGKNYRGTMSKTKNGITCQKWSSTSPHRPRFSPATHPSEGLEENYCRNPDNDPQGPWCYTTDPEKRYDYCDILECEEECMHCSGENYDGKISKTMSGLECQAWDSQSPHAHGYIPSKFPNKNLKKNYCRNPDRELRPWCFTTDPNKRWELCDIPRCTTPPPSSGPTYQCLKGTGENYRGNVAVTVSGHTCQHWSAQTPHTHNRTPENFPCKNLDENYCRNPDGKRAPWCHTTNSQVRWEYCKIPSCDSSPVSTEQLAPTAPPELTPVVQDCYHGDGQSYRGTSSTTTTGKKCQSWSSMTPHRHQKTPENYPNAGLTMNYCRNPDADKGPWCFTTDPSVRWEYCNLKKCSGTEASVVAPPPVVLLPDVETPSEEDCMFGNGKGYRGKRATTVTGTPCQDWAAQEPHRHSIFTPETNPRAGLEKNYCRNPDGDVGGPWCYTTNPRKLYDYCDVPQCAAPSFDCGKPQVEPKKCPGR

The molecule `CC[C@H](C)[C@@H]1NC(=O)[C@H]([C@@H](C)O)NC(=O)[C@H](CCCCN)NC(=O)[C@@H]2CCCN2C(=O)[C@H]([C@@H](C)O)NC(=O)CNC(=O)[C@H](CC(=O)O)NC(=O)CNC(=O)[C@H](Cc2c[nH]c3ccccc23)NC(=O)[C@H](Cc2ccccc2)NC(=O)[C@H]([C@@H](C)O)NC(=O)[C@H]([C@@H](C)O)NC(=O)[C@H](CCC(=O)O)NC(=O)[C@H](CC(C)C)NC(=O)[C@H](Cc2c[nH]cn2)NC(=O)[C@H]([C@@H](C)O)NC(=O)[C@H](CCC(N)=O)NC(=O)CNC(=O)[C@H]2CCCN2C(=O)[C@H](CCC(N)=O)NC(=O)[C@H]([C@@H](C)O)NC(=O)[C@H](C(C)C)NC(=O)[C@H](CCCNC(=N)N)NC1=O` [compound 163] (cyclo(THLETTFWGDGTPKTIRVTQ[dP]GQ)) registered a half-life at 100 μM in data set [1] (plasmin (isolated protease, 10 μg/mL) in PBS) of 1.4 h.

Turning to `CC[C@H](C)[C@@H]1NC(=O)[C@H]([C@@H](C)O)NC(=O)[C@H](CCCCN)NC(=O)[C@@H]2CCCN2C(=O)[C@H]([C@@H](C)O)NC(=O)CNC(=O)[C@H](CC(=O)O)NC(=O)CNC(=O)[C@H]([C@@H](C)O)NC(=O)[C@H](Cc2ccccc2)NC(=O)[C@H]([C@@H](C)O)NC(=O)[C@H]([C@@H](C)O)NC(=O)[C@H](CCC(=O)O)NC(=O)[C@H](CC(C)C)NC(=O)[C@H](Cc2c[nH]cn2)NC(=O)[C@H]([C@@H](C)O)NC(=O)[C@H](CCC(N)=O)NC(=O)CNC(=O)[C@H]2CCCN2C(=O)[C@H](CCC(N)=O)NC(=O)[C@H]([C@@H](C)O)NC(=O)[C@H](C(C)C)NC(=O)[C@H](CCCNC(=N)N)N(C)C1=O` [compound 99], the half-life at 100 μM in data set [1] (setting [9]) came to 2.83 h. For the same molecule, the negative logarithm of the Ki (pKi) in data set [2] is 6.00.

On to `CC[C@H](C)[C@H](NC(=O)[C@H](CO)NC(=O)[C@H](CO)NC(=O)[C@H](CC(C)C)NC(=O)[C@H](CCCCN)NC(=O)c1ccc2c(c1)C(=O)OC21c2ccc(N(C)C)cc2Oc2cc(N(C)C)ccc21)C(=O)N[C@@H](CCC(=O)O)C(=O)N[C@@H](CO)C(=O)N[C@@H](CC(=O)O)C(=O)N[C@H](C(=O)O)C(C)C` [C-terminal GluN2B TAM RA probe] (5TAMRA-KLSSIESDV-OH; N-terminus assumed), for which the “fold loss in affinity (Kd mutant normalized to PSD-95-PDZ2 WT)” value in data set [3] came to 2 fold; in data set [4] it was 5 fold. Further, in data set [5], the “fold decrease in affinity (Kd mutant normalized to PSD-95-PDZ2 WT)” value was 5 fold.

Molecule `CC[C@H](C)[C@@H]1NC(=O)[C@H]([C@@H](C)O)NC(=O)[C@H](C)NC(=O)[C@@H]2CCCN2C(=O)[C@H]([C@@H](C)O)NC(=O)CNC(=O)[C@H](CC(=O)O)NC(=O)CNC(=O)[C@H]([C@@H](C)O)NC(=O)[C@H](Cc2ccccc2)NC(=O)[C@H]([C@@H](C)O)NC(=O)[C@H]([C@@H](C)O)NC(=O)[C@H](CCC(=O)O)NC(=O)[C@H](CC(C)C)NC(=O)[C@H](Cc2c[nH]cn2)NC(=O)[C@H]([C@@H](C)O)NC(=O)[C@H](CCC(N)=O)NC(=O)CNC(=O)[C@H]2CCCN2C(=O)[C@H](CCC(N)=O)NC(=O)[C@H]([C@@H](C)O)NC(=O)[C@H](C(C)C)NC(=O)[C@H](CCCNC(=N)N)NC1=O` [compound 68] (cyclo(THLETTFTGDGTPATIRVTQ[dP]GQ)) had a half-life at 100 μM in data set [1] (setting [9]) of 6 h. Besides, the “Normalized SPOT fluorescence (Mut/WT)” value in data set [6] is 0.39. Further, the negative logarithm of the Ki (pKi) in data set [2] was 5.84. The “Relative Ki (Ki mut/Ki WT)” value in data set [2] (FP inhibition constant normalized to WT value) came out at 0.95.

In data set [1] (setting [9]), `CC[C@H](C)[C@@H]1NC(=O)[C@H]([C@@H](C)O)NC(=O)[C@H](CCCCN)NC(=O)[C@@H]2CCCN2C(=O)[C@H]([C@@H](C)O)NC(=O)CNC(=O)[C@H](CC(=O)O)NC(=O)CNC(=O)[C@H]([C@@H](C)O)NC(=O)[C@H](Cc2ccccc2)NC(=O)[C@H]([C@@H](C)O)NC(=O)[C@H]([C@@H](C)O)NC(=O)[C@H](CCC(=O)O)NC(=O)[C@H](CC(C)C)NC(=O)[C@H](Cc2c[nH]cn2)NC(=O)[C@H]([C@@H](C)O)NC(=O)[C@H](CCC(N)=O)NC(=O)CNC(=O)[C@H]2CCCN2C(=O)[C@H](CCC(N)=O)NC(=O)[C@H]([C@@H](C)O)NC(=O)[C@H](C(C)C)NC(=O)[C@H](CCCNC(=N)N)NC1=O` [compound 12] displayed a half-life at 100 μM of 1.18 h. Besides, in data set [7], the ΔH was -7.7418 ± 0.6837 kcal/mol and the “−ΔS*T” value was found to be 0.3499 ± 0.3084 kcal/mol.

The molecule “cyclo-(THLETTFTGDGTP(K-CA)TIRVTQpGQ) [SEQ ID NO: 427]” had a CP50 in data set [8] of 31.1 ± 2.1 µM.

In general, half-life refers to how long it takes for the measured level to halve. As a reminder, the pKi is the negative decadic logarithm of the Ki, by convention in mol/L.

The values above are taken from patent US20230220021A1, “CYCLIC PEPTIDE INHIBITORS OF PSD-95 AND USES THEREOF” (University of Copenhagen, priority 2020, published 2023).
